Data on 22 molecules can be found in patent US4493843A, “Indole and indoline carboxylic acid compounds and method of use” (May & Baker Limited, priority 1980, dated 1985).

The subject of assay [1] is serum cholesterol and serum triglycerides. The assay can be described thus: Hypolipidaemic activity in rats (compound in diet, last 7 of 10 days). It is filed as in vivo, Male Wistar rats. To be noted: Rattus norvegicus, po, 168 h, 7 days; for change in vivo at 0.2 % strength: 0.2 % w/w dose in diet; for change in vivo at 0.03 % strength: 0.03 % w/w dose in diet; for change in vivo at 0.1 % strength: 0.1 % w/w dose in diet. How it is done:
Hypolipidaemic Activity in Rats
Male Wistar rats each weighing between 120 and 150 g were caged in groups of eight and fed a powdered diet for 10 days. For the last 7 days of that period the test compound was administered orally by mixing the compound in the diet and allowing the animals to feed normally. Food consumption was measured on day 9 for each group.
At noon on day 10 the animals were killed by inhalation of carbon dioxide from solid carbon dioxide. A sample of blood was removed by cardiac puncture and the serum cholesterol and serum triglycerides were analysed by means of an autoanalyser.
Control groups (receiving only the normal, unmedicated diet) were included with each test.
The percentage reductions in the concentrations of serum cholesterol and serum triglycerides were calculated by comparison with the simultaneous controls, for each concentration of the test compound used.

A further assay deals with serum glucose. Description: Hypoglycaemic activity in diabetic mice. Conditions: 200 mg/kg body weight per day orally for 3 days; 3 hours after last dose. It is filed as in vivo, Diabetic mice (strain C 57, black, MRI derived Obese/Obese). On the procedure: Hypoglycaemic Activity in Diabetic Mice
Diabetic mice (strain C 57, black, MRI derived Obese/Obese) of either sex each weighting between 45 and 70 g were given the test compound orally at a dose of 200 mg/kg body weight per day for 3 days. Three hours after the last dose the animals were weighed, anaesthetised with carbon dioxide and bled by cardiac puncture.
The serum glucose levels were assessed by the glucose-oxidase method of God-Perid.
Control groups (given doses of unmedicated tragacanth mucilage) were included with each test.
The percentage reduction in the concentration of serum glucose was calculated by comparison with the simultaneous controls, for each of the test compounds used.

Assay [2] relates to Smooth muscle cells from explants of pig thoracic aorta. The assay can be described thus: Aortic smooth muscle cell proliferation inhibiting activity. It counts as cell-based. To be noted: Sus scrofa, 168 h, 5 μg/ml medium; six or seven day incubation; each value mean of four dishes. How it is done:
Aortic smooth muscle cell proliferation inhibiting activity
Smooth muscle cells were grown in culture from explants of pig thoracic aorta, using Dulbecco's Modified Eagles (DME) Medium containing 20% foetal calf serum (FCS) and antibiotics. The cells were incubated at 37° C. in an atmosphere of 95% air and 5% carbon dioxide. At confluency the cells were routinely subcultured by trypsinising and replating at approximately one third of their confluent density in DME Medium containing 10% FCS and antibiotics.
The smooth muscle cells were plated out at densities of 100,000-200,000 cells per 35×10 mm Falcon dish in 2 ml DME Medium containing 10% FCS and antibiotics. After 24 hours, when the cells had attached to the dishes, the medium was replaced with 2 ml DME Medium containing 1% FCS and antibiotics. The cultures were incubated for a further three days to allow the cells to become quiescent (i.e. no longer undergoing cell division). The medium was then replaced by 2 ml control or test medium. The test medium consisted of DME Medium (containing 10% FCS and antibiotics) and the compound to be tested at a concentration of 5 μg/ml medium. The compounds were pre-dissolved in acetone such that the final concentration of acetone in the medium was 0.2% (v/v). The control medium consisted of DME Medium (containing 10% FCS and antibiotics) and acetone at 0.2% (v/v) concentration. After three days incubation in test or control medium, the medium was replaced with fresh test or control medium and the cells incubated for a further three or four days. At the end of the six or seven day incubation period cell numbers were determined by trypsinising the cells and counting the cell suspension in a Coulter counter.
All results in Table II hereafter represent the mean value for four dishes of cells. Percentage inhibition of proliferation was calculated using the following formula: [formula] where S=Mean cell number per dish at start of experiment (upon addition of control or test medium).
T=Mean cell number per dish in test cultures at completion of experiment.
C=Mean cell number per dish in control cultures at completion of experiment.

Setting [3] is: read-out: % change in serum cholesterol compared with control.
Setting [4] is: read-out: % change in serum triglycerides compared with control.

Where two headings read alike, the source gives them in different places.

For the molecule `CCCCCCCCCCCC1CNc2cc(C(=O)O)ccc21` (racemic) [Compound BXX, (RS)-3-(n-undecyl)indoline-6-carboxylic acid], the figures for the change in vivo at 0.2 % strength in assay [1] (setting [3]) and in assay [1] (setting [4]) were -10% and -39%, respectively. In the assay with serum glucose, the “% change in serum glucose compared with control” value is -9%.
On to `CCCCCCCCCCCc1[nH]c2ccc(C(=O)O)cc2c1C` [Compound CQQ, 2-(n-undecyl)-3-methylindole-5-carboxylic acid], for which the “% change in serum glucose compared with control” value with serum glucose is -40%.
Broadly, the inhibition is the relative decrease from the control value, in per cent. Take `CCCCCCCCCCCCCCc1cc2cc(C(=O)O)ccc2[nH]1` [Compound NN, 2-(n-tetradecyl)indole-5-carboxylic acid]: the change in vivo at 0.2 % strength in assay [1] (setting [3]) was -39%; in assay [1] (setting [4]), -73%. This molecule had an inhibition at 5 µg/mL in assay [2] of 76%.
Taken in the same sequence, the figures for `CCCCCCCc1cc2cc(C(=O)OC)ccc2[nH]1` [Compound ASS, methyl 2-(n-heptyl)indole-5-carboxylate] were -2%, -20% and 36%.
As to `CCCCCCCCCCCCCCCCc1cc2ccc(C(=O)O)cc2[nH]1` [Compound TT, 2-(n-hexadecyl)indole-6-carboxylic acid], the figures for the change in vivo at 0.2 % strength in assay [1] (setting [3]) and in assay [1] (setting [4]) were -8% and -6%, respectively. In addition, 5 µg/mL produced 61% inhibition in assay [2].
For `CCCCCCCCCCCCCCCc1cc2cc(C(=O)O)ccc2[nH]1` [Compound G, 2-(n-pentadecyl)indole-5-carboxylic acid], the values for the change in vivo at 0.03 % strength in assay [1] (setting [3]) and in assay [1] (setting [4]) were -7% and -41%, respectively. The molecule also showed an inhibition at 5 µg/mL in assay [2] of 51%.
Consider `CCCCCCCCCCCc1cc2ccc(C(=O)OCC)cc2[nH]1` [Compound FF, ethyl 2-(n-undecyl)indole-6-carboxylate], for which the change in vivo at 0.2 % strength is -13% in assay [1] (setting [3]) and -40% in assay [1] (setting [4]).
Take `CCCCCCCCc1c[nH]c2cc(C(=O)O)ccc12` [Compound BEE, 3-(n-octyl)indole-6-carboxylic acid]: the values for the change in vivo at 0.2 % strength in assay [1] (setting [3]) and in assay [1] (setting [4]) were -19% and -18%, respectively.
In the case of `CCCCCCCC1Cc2cc(C(=O)O)ccc2N1` (racemic) [Compound ABB, (RS)-2-(n-heptyl)indoline-5-carboxylic acid], the change in vivo at 0.2 % strength in assay [1] (setting [3]) is -18%; in assay [1] (setting [4]), -34%.
The corresponding values for `CCCCCCCCCCCCCCCCCc1cc2ccc(C(=O)O)cc2[nH]1` [Compound B, 2-(n-heptadecyl)indole-6-carboxylic acid] are 5% and -4%.
The corresponding values for `CCCCCCCCCCC1CNc2cc(C(=O)O)ccc21` (racemic) [Compound BYY, (RS)-3-(n-decyl)indoline-6-carboxylic acid] are -23% and -50%.
The corresponding values for `CCCCCCCCCCCCCCCCCCC1CNc2ccc(C(=O)O)cc21` (racemic) [Compound BOO, (RS)-3-(n-octadecyl)indoline-5-carboxylic acid] are 3% and 9%.
For `CCCCCCCCCCCCCCCc1cc2cc(C(=O)OCCCC)ccc2[nH]1` [Compound HH, n-butyl 2-(n-pentadecyl)indole-5-carboxylate], the change in vivo at 0.2 % strength in assay [1] (setting [3]) was -24%; in assay [1] (setting [4]), -50%.
Consider `CCCCCCCc1cc2ccc(C(=O)OCC)cc2[nH]1` [Compound AJJ, ethyl 2-(n-heptyl)indole-6-carboxylate], for which the change in vivo at 0.2 % strength in assay [1] (setting [3]) is -8%; in assay [1] (setting [4]), 6%. Moreover, the inhibition at 5 µg/mL in assay [2] was 45%.
Take `CCCCCCCCCCC1Cc2ccc(C(=O)O)cc2N1` (racemic) [Compound ZZ, (RS)-2-(n-decyl)indoline-6-carboxylic acid]: the change in vivo at 0.2 % strength in assay [1] (setting [3]) was -32%; in assay [1] (setting [4]), -77%.
For the molecule `CCCCCCCCCCCc1cc2cc(C(=O)O)ccc2[nH]1` [Compound F, 2-(n-undecyl)indole-5-carboxylic acid], in assay [1] (setting [3]), the change in vivo at 0.1 % strength was -18% and the change in vivo at 0.2 % strength was -37%. In assay [1] (setting [4]), the change in vivo at 0.1 % strength is -43% and the change in vivo at 0.2 % strength is -73%.
For the molecule `CCCCCCCCC1CNc2cc(C(=O)O)ccc21` (racemic) [Compound CCC, (RS)-3-(n-octyl)indoline-6-carboxylic acid], the change in vivo at 0.2 % strength in assay [1] (setting [3]) is -11%; in assay [1] (setting [4]), -28%.
As to `CCCCCCCCCCCCCCCCCCc1cc2cc(C(=O)O)ccc2[nH]1` [Compound T, 2-(n-octadecyl)indole-5-carboxylic acid], the change in vivo at 0.1 % strength in assay [1] (setting [3]) was -45%; in assay [1] (setting [4]), -78%. Also, the change in vivo at 0.2 % strength was -43% in assay [1] (setting [3]) and -67% in assay [1] (setting [4]). For the same molecule, at 5 µg/mL the inhibition in assay [2] was 30%.
On to `CCCCCCCCCCCCCCCc1cc2ccc(C(=O)OCCCC)cc2[nH]1` [Compound APP, n-butyl 2-(n-pentadecyl)indole-6-carboxylate], for which the change in vivo at 0.2 % strength was -2% in assay [1] (setting [3]) and -20% in assay [1] (setting [4]).
On to `CCCCCCCCCCCCCCCCCCCCCCCc1cc2cc(C(=O)O)ccc2[nH]1` [Compound QQ, 2-(n-tricosyl)indole-5-carboxylic acid], for which the figures for the change in vivo at 0.2 % strength in assay [1] (setting [3]) and in assay [1] (setting [4]) were -16% and -36%, respectively.
Consider `CCCCCCCCCCCC1Cc2cc(C(=O)O)ccc2N1` (racemic) [Compound YY, (RS)-2-(n-undecyl)indoline-5-carboxylic acid], for which, in assay [1] (setting [3]), the change in vivo at 0.03 % strength is -25%, the change in vivo at 0.1 % strength was -21% and the change in vivo at 0.2 % strength was -32%. Moreover, in assay [1] (setting [4]), the change in vivo at 0.03 % strength was -51%, the change in vivo at 0.1 % strength is -65% and the change in vivo at 0.2 % strength was -64%.
As to `CCCCCCCCCCC1CNc2ccc(C(=O)O)cc21` (racemic) [Compound BPP, (RS)-3-(n-decyl)indoline-5-carboxylic acid], the change in vivo at 0.2 % strength in assay [1] (setting [3]) was -3%; in assay [1] (setting [4]), 0%.
